In patent publication US20080248511A1, “METHODS TO QUENCH LIGHT FROM OPTICAL REACTIONS” (priority 2007, published 2008):

Key:
[1] = biological target: T1, Renilla luciferase (Renilla reniformis, UniProt P27652); assay: Non-detergent compound screen, Renilla luciferase (Example 6); type: biochemical; conditions: for remaining activity at 10 µM / remaining activity at 100 µM / remaining activity at 1000 µM / remaining activity at 23 µM / remaining activity at 153 µM: 0.5% Tergitol NP-9, 0.03% BDDABr, read-out: Retained Renilla Luciferase Value (%)
T1 sequence (P27652 1-311): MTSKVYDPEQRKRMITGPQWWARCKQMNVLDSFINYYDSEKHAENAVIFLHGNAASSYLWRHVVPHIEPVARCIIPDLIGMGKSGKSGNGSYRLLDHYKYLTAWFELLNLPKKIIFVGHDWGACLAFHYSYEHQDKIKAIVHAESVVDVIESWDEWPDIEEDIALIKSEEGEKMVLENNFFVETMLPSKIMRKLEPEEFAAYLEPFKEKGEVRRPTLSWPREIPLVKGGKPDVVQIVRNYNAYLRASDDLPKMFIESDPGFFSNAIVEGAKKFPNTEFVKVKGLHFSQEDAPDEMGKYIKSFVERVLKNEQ
Method: (§1) Each compound was diluted into 200 mM MOPS pH 6.7, 4 μM MgSO4, 1 mM CDTA, 0.5% Tergitol NP-9, 0.05% Mazu-DF-204, 0.03% BDDABr, 30 mM thiourea, 1 mM bis-(2-mercaptoethylsulfone) (BMS), 4 μM CoA, and 1 μM 5-fluoroluciferin. Just prior to the luciferase reaction, 0.1% Prionex® (Pentapharm) and 2.9 μM coelenterazine-h (Promega) were added to each solution.
(§2) The firefly luciferase and Renilla luciferase enzymes were diluted as described in Examples 3 and 5. The luciferase reactions were initiated by adding 50 μl of the firefly luciferase and Renilla luciferase enzyme solution to 50 μl of reagent solution. The reactions were performed as described above. The retained Renilla and firefly luciferase-mediated luminescence and selectivity values for each inhibitor tested are listed in Table 6.

[2] = biological target: firefly luciferase (Photinus pyralis, UniProt P08659); assay: Non-detergent compound screen, firefly luciferase (Example 6); type: biochemical; conditions: 0.5% Tergitol NP-9, 0.03% BDDABr, read-out: Retained Firefly Luciferase Value (%); for remaining activity at 10 µM: inhibitor 10 μM; for remaining activity at 100 µM: inhibitor 100 μM; for remaining activity at 1000 µM: inhibitor 1000 μM; for remaining activity at 23 µM: inhibitor 23 μM; for remaining activity at 153 µM: inhibitor 153 μM
Method: as §1, §2

firefly luciferase, sequence (P08659 whole entry): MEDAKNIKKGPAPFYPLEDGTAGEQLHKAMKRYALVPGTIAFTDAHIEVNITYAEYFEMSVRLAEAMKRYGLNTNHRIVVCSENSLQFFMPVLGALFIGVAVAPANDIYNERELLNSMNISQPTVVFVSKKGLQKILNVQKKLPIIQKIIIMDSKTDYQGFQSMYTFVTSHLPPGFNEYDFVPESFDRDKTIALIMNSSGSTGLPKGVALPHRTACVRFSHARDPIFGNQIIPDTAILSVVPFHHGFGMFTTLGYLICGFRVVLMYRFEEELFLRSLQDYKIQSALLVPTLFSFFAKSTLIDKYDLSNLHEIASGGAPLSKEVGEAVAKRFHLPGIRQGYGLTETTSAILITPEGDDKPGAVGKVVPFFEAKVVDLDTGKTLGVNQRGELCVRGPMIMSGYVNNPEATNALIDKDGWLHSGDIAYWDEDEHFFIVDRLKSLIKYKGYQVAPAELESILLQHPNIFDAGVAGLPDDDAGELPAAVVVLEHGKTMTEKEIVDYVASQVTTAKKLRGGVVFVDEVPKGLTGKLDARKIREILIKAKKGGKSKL

`COc1ccc(CNC(=O)/C=C/c2ccc3[nH]cc(CCN(C)C)c3c2)cc1` [Compound 3068, (E)-3-(3-(2-(dimethylamino)ethyl)-1H-indol-5-yl)-N-(4-methoxybenzyl)acrylamide] was tested, and the “inhibitor of Renilla luciferase, grade in words” value (“inhibitor of Renilla luciferase” below) [1] was “excellent inhibitors of Renilla luciferase”, the “Selectivity Value” ([1]; inhibitor 10 μM) was 2.5 and the remaining activity at 10 µM ([1]; inhibitor 10 μM) was 40%. For the same compound, the “Selectivity Value” ([1]; inhibitor 100 μM) was 10.2, the remaining activity at 100 µM ([1]; inhibitor 100 μM) was 10% and the “Selectivity Value” ([1]; inhibitor 1000 μM) was 48.6. The remaining activity at 1000 µM ([1]; inhibitor 1000 μM) was 2.1%, the remaining activity at 10 µM [2] was 101% and the remaining activity at 100 µM [2] was 102%. It also gave a remaining activity at 1000 µM [2] of 102%.

`C=C(C(=O)NCc1ccc(OC)cc1)c1ccc2[nH]ccc2c1` [Compound 3054, 2-(1H-indol-5-yl)-N-(4-methoxybenzyl)acrylamide] was tested, and the “inhibitor of Renilla luciferase” value [1] was “suitable inhibitors of Renilla luciferase”, the “Selectivity Value” ([1]; inhibitor 23 μM) was 1.1 and the remaining activity at 23 µM ([1]; inhibitor 23 μM) was 95%. For the same compound, the “Selectivity Value” ([1]; inhibitor 153 μM) was 1.1, the remaining activity at 153 µM ([1]; inhibitor 153 μM) was 95% and the “Selectivity Value” ([1]; inhibitor 1000 μM) was 1.1. For the same compound, the remaining activity at 1000 µM ([1]; inhibitor 1000 μM) was 93.3%, the remaining activity at 23 µM [2] was 101% and the remaining activity at 153 µM [2] was 102%. It also gave a remaining activity at 1000 µM [2] of 101%.

With `COc1ccc(CNC(=O)/C(C#N)=C/CCCCCCCBr)cc1` [Compound 3059, (E)-10-bromo-2-cyano-N-(4-methoxybenzyl)dec-2-enamide] the “inhibitor of Renilla luciferase” value [1] was “suitable inhibitors of Renilla luciferase”, the “Selectivity Value” ([1]; inhibitor 23 μM) was 1.02 and the remaining activity at 23 µM ([1]; inhibitor 23 μM) was 99%. For the same compound, the “Selectivity Value” ([1]; inhibitor 153 μM) was 1.05, the remaining activity at 153 µM ([1]; inhibitor 153 μM) was 96% and the “Selectivity Value” ([1]; inhibitor 1000 μM) was 1.07. For the same compound, the remaining activity at 1000 µM ([1]; inhibitor 1000 μM) was 94.6%, the remaining activity at 23 µM [2] was 101% and the remaining activity at 153 µM [2] was 101%. For the same compound, the remaining activity at 1000 µM [2] was 101%.

With `COc1cc(CNC(=O)/C=C/c2ccc3[nH]cc(CCN(C)C)c3c2)cc(OC)c1OC` [Compound 3072, (E)-3-(3-(2-(dimethylamino)ethyl)-1H-indol-5-yl)-N-(3,4,5-trimethoxybenzyl)acrylamide] the “inhibitor of Renilla luciferase” value [1] was “inhibitors of Renilla luciferase”, the “Selectivity Value” ([1]; inhibitor 10 μM) was 1 and the remaining activity at 10 µM ([1]; inhibitor 10 μM) was 101%. For the same compound, the “Selectivity Value” ([1]; inhibitor 100 μM) was 1.1, the remaining activity at 100 µM ([1]; inhibitor 100 μM) was 95% and the “Selectivity Value” ([1]; inhibitor 1000 μM) was 1.8. The remaining activity at 1000 µM ([1]; inhibitor 1000 μM) was 55.2%, the remaining activity at 10 µM [2] was 101% and the remaining activity at 100 µM [2] was 101%. For the same compound, the remaining activity at 1000 µM [2] was 101%.

With `C=C(C(=O)NCc1ccc(OC)cc1)c1ccc2oc(=O)cc(C)c2c1` [Compound 3058, N-(4-methoxybenzyl)-2-(4-methyl-2-oxo-2H-chromen-6-yl)acrylamide] the “inhibitor of Renilla luciferase” value [1] was “suitable inhibitors of Renilla luciferase”, the “Selectivity Value” ([1]; inhibitor 23 μM) was 1.05 and the remaining activity at 23 µM ([1]; inhibitor 23 μM) was 96%. The “Selectivity Value” ([1]; inhibitor 153 μM) was 1.04, the remaining activity at 153 µM ([1]; inhibitor 153 μM) was 98% and the “Selectivity Value” ([1]; inhibitor 1000 μM) was 1.04. The remaining activity at 1000 µM ([1]; inhibitor 1000 μM) was 98.8%, the remaining activity at 23 µM [2] was 101% and the remaining activity at 153 µM [2] was 102%. It also gave a remaining activity at 1000 µM [2] of 103%.

In the case of `COc1ccc(CNC(=O)/C=C/c2ccc3[nH]cc(CCN(C)C)c3c2)c(OC)c1` [Compound 3051, (E)-N-(2,4-dimethoxybenzyl)-3-(3-(2-(dimethylamino)ethyl)-1H-indol-5-yl)acrylamide], the “inhibitor of Renilla luciferase” value [1] is reported as “excellent inhibitors of Renilla luciferase”, the “Selectivity Value” ([1]; inhibitor 10 μM) is reported as 1.9 and the remaining activity at 10 µM ([1]; inhibitor 10 μM) is reported as 55%. For the same compound, the “Selectivity Value” ([1]; inhibitor 100 μM) was 7.3, the remaining activity at 100 µM ([1]; inhibitor 100 μM) was 14% and the “Selectivity Value” ([1]; inhibitor 1000 μM) was 53.7. The remaining activity at 1000 µM ([1]; inhibitor 1000 μM) was 1.9%, the remaining activity at 10 µM [2] was 102% and the remaining activity at 100 µM [2] was 102%. For the same compound, the remaining activity at 1000 µM [2] was 102%.

In the case of `COc1ccc(CNC(=O)/C=C/c2ccc3[nH]ccc3c2)cc1` [Compound 3056, (E)-3-(1H-indol-5-yl)-N-(4-methoxybenzyl)acrylamide], the “inhibitor of Renilla luciferase” value [1] is reported as “inhibitors of Renilla luciferase”, the “Selectivity Value” ([1]; inhibitor 10 μM) is reported as 1.1 and the remaining activity at 10 µM ([1]; inhibitor 10 μM) is reported as 93%. For the same compound, the “Selectivity Value” ([1]; inhibitor 100 μM) was 1.3, the remaining activity at 100 µM ([1]; inhibitor 100 μM) was 79% and the “Selectivity Value” ([1]; inhibitor 1000 μM) was 2.7. For the same compound, the remaining activity at 1000 µM ([1]; inhibitor 1000 μM) was 32.6%, the remaining activity at 10 µM [2] was 101% and the remaining activity at 100 µM [2] was 100%. The remaining activity at 1000 µM [2] was 89%.

With `COc1ccc(CNC(=O)/C=C/c2ccc3c(c2)c(CCN(C)C)cn3C)cc1` [Compound 3049, (E)-3-(3-(2-(dimethylamino)ethyl)-1-methyl-1H-indol-5-yl)-N-(4-methoxybenzyl)acrylamide] the “inhibitor of Renilla luciferase” value [1] was “excellent inhibitors of Renilla luciferase”.
